In patent US20260191970A1, “CRBN LIGAND, PREPARATION METHOD THEREFOR, AND APPLICATION” (Shenzhen Zhongge Biological Technology Co., Ltd., priority 2023, published 2026):

Target: T1, Human Cereblon WT GST-tagged protein (Homo sapiens, UniProt Q96SW2)
T1 construct: purchased CISBIO 64BDCRBNPEG
Assay: CRBN binding assay (HTRF method)
Conditions: competition with Thalidomide-Red, 25° C. 1 h
Experimental: In this experiment, the binding interaction between compounds and CRBN was detected, and based on the IC50 values, the affinity of the compounds for the CRBN target was evaluated.
The affinity of the compounds for CRBN was detected using CEREBLON BINDING KITS (CISBIO, 64 BDCRBNPEG) containing diluent #9, Human Cereblon WT GST-tagged protein, GST Eu Cryptate Antibody, and Thalidomide-Red.
20 nL of each of the compounds was transferred to a 384-well plate (PerkinElmer, 6007299) using an Ehco650 apparatus (Beckman, 650). 5 μL of 1× diluent #9 (CISBIO, 64BDCRBNPEG) was added to the 384-well plate, and then 5 μL of 1× Human Cereblon WT GST-tagged protein (CISBIO, 64BDCRBNPEG) was added. The plate was sealed with a plate sealer, shaken on a plate shaker (Kylin-Bell, MH-2) for 10 s, centrifuged at 1000 rpm for 1 min, and incubated at 25° C. for 5 min. 5 μL of 1×GST Eu Cryptate Antibody (CISBIO, 64BDCRBNPEG) and 5 μL of 1× Thalidomide-Red (CISBIO, 64BDCRBNPEG) were added to the 384-well plate. The plate was sealed with a plate sealer, shaken for 30 s, centrifuged at 1000 rpm for 1 min, and incubated at 25° C. for 1 h. The signals at 665 nm and 620 nm were measured using Envision (PerkinElmer, 2105-0020).
The IC50 values for compound activity were calculated using Graphpad Prism9 software based on the compound concentrations and the ratio of the signals at 665 nm and 620 nm. Calculation formula: […]

T1 sequence (Q96SW2 whole entry): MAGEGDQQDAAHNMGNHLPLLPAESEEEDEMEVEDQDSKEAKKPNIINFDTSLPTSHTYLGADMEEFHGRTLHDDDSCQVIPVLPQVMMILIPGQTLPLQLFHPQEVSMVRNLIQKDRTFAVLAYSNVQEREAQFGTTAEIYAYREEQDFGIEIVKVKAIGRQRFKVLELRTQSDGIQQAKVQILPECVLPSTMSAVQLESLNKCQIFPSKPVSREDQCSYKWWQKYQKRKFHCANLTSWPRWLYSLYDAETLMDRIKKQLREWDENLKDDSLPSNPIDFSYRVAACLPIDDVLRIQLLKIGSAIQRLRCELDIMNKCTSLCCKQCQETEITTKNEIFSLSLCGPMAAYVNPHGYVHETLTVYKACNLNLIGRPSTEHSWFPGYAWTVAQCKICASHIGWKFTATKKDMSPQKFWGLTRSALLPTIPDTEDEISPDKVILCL

IC50 [nM]	SMILES
≤ 2000	CC/C(NC1CCC(=O)NC1=O)=C1/C(=O)N(C)c2ccc(N)cc21 (racemic) [Compound 6]
≤ 2000	CC/C(NC1CCC(=O)NC1=O)=C1/C(=O)N(C)c2ccc(N)cc21 (single isomer, unassigned) [Compound 6-A]
≤ 2000	C/C(NC1CCC(=O)NC1=O)=C1/C(=O)Nc2ccc(Br)cc21 (stereo not shown) [Compound 1]
2000 to 5000	C/C(NC1CCC(=O)NC1=O)=C1/C(=O)N(C)c2ccc(N)cc21 (stereo not shown) [Compound 4]
